Data as given in ChEMBL document CHEMBL1201862, “PubChem BioAssay data set” (2004).
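Test compounds were applied to cells in 96-well plates for 48 hours at 5 doses. GI50 is the concentration that inhibits growth by half.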 Calls of active or inactive are those of the source. Cut-off read from the data, not from the text of the source: active = GI50 up to about 1.1 µM and inactive = higher.

Legend:
Assay in all cases: growth of human tumour cells (NCI), 48 h
[1] = tested on: HCC 2998
[2] = tested on: SK-MEL-5
[3] = tested on: HCT-15
[4] = tested on: M14
[5] = tested on: BT-549
[6] = tested on: OVCAR-5
[7] = tested on: ACHN
[8] = tested on: K562
[9] = tested on: HOP-92
[10] = tested on: COLO 205
[11] = tested on: SNB-19
[12] = tested on: Hs-578T
[13] = tested on: OVCAR-8
[14] = tested on: LOX IMVI
[15] = tested on: Malme-3M
[16] = tested on: SK-MEL-28
[17] = tested on: UACC-62
[18] = tested on: NCI-H460
[19] = tested on: EKVX
[20] = tested on: CAKI-1
[21] = tested on: 786-0
[22] = tested on: SF-268
[23] = tested on: SNB-75
[24] = tested on: SK-OV-3
[25] = tested on: SK-MEL-2
[26] = tested on: MCF7
[27] = tested on: KM12
[28] = tested on: OVCAR-4
[29] = tested on: PC-3
[30] = tested on: U-251
[31] = tested on: MOLT-4
[32] = tested on: CCRF-CEM
[33] = tested on: DU-145
[34] = tested on: SF-539
[35] = tested on: HT-29
[36] = tested on: MDA-MB-231
[37] = tested on: RXF 393
[38] = tested on: MDA-N
[39] = tested on: OVCAR-3
[40] = tested on: NCI-H226
[41] = tested on: SW-620
[42] = tested on: NCI-H23
[43] = tested on: A549
[44] = tested on: UACC-257
[45] = tested on: TK-10
[46] = tested on: HL-60
[47] = tested on: HOP-62
[48] = tested on: SF-295
[49] = tested on: UO-31
[50] = tested on: MDA-MB-435
[51] = tested on: HCT-116
[52] = tested on: SN12C
[53] = tested on: NCI/ADR-RES
[54] = tested on: RPMI-8226
[55] = tested on: T47D
[56] = tested on: A498
[57] = tested on: SR
[58] = tested on: NCI-H522
[59] = tested on: IGROV-1

Q: How did the GI50 [1] turn out when `Cc1nc2cc(C(F)(F)F)ccc2[nH]c1=O` was run?
A: Its GI50 is > 100 µM (inactive).

Q: What about the GI50 [2] of the same compound?
A: Its GI50 is > 100 µM (inactive).

Q: What about the GI50 [3] of the same compound?
A: The GI50 was greater than 100 µM.

Q: What about the GI50 [4] of the same compound?
A: The GI50 was > 100 µM (inactive).

Q: And the GI50 [5]?
A: The GI50 was > 100 µM (inactive).

Q: What about the GI50 [6] of the same compound?
A: Its GI50 is > 100 µM (inactive).

Q: And the GI50 [7]?
A: The GI50 was > 100 µM (inactive).

Q: What about the GI50 [8] of the same compound?
A: Its GI50 is > 100 µM (inactive).

Q: What about the GI50 [9] of the same compound?
A: The GI50 was > 100 µM (inactive).

Q: What about the GI50 [10] of the same compound?
A: Its GI50 is > 100 µM (inactive).

Q: And the GI50 [11]?
A: The GI50 was > 100 µM (inactive).

Q: What about the GI50 [12] of the same compound?
A: The GI50 was 21.9 µM (inactive).

Q: What about the GI50 [13] of the same compound?
A: The GI50 was > 100 µM (inactive).

Q: What about the GI50 [14] of the same compound?
A: The GI50 was > 100 µM (inactive).

Q: What about the GI50 [15] of the same compound?
A: The GI50 was > 100 µM (inactive).

Q: And the GI50 [16]?
A: The GI50 was > 100 µM (inactive).

Q: What about the GI50 [17] of the same compound?
A: The GI50 was 87.7 µM (inactive).

Q: What about the GI50 [18] of the same compound?
A: The GI50 was > 100 µM (inactive).

Q: And the GI50 [19]?
A: The GI50 was 7.08 µM (inactive).

Q: What about the GI50 [20] of the same compound?
A: Its GI50 is > 100 µM (inactive).

Q: What about the GI50 [21] of the same compound?
A: Its GI50 is > 100 µM (inactive).

Q: And the GI50 [22]?
A: The GI50 was > 100 µM (inactive).

Q: What about the GI50 [23] of the same compound?
A: Its GI50 is > 100 µM (inactive).

Q: What about the GI50 [24] of the same compound?
A: The GI50 was > 100 µM (inactive).

Q: What about the GI50 [25] of the same compound?
A: The GI50 was > 100 µM (inactive).

Q: And the GI50 [26]?
A: Its GI50 is > 100 µM (inactive).

Q: And the GI50 [27]?
A: The GI50 was > 100 µM (inactive).

Q: What about the GI50 [28] of the same compound?
A: The GI50 was > 100 µM (inactive).

Q: And the GI50 [29]?
A: The GI50 was > 100 µM (inactive).

Q: What about the GI50 [30] of the same compound?
A: The GI50 was > 100 µM (inactive).

Q: And the GI50 [31]?
A: The GI50 was > 100 µM (inactive).

Q: What about the GI50 [32] of the same compound?
A: The GI50 was > 100 µM (inactive).

Q: What about the GI50 [33] of the same compound?
A: Its GI50 is > 100 µM (inactive).

Q: And the GI50 [34]?
A: Its GI50 is > 100 µM (inactive).

Q: And the GI50 [35]?
A: The GI50 was > 100 µM (inactive).

Q: What about the GI50 [36] of the same compound?
A: The GI50 was > 100 µM (inactive).

Q: And the GI50 [37]?
A: The GI50 was > 100 µM (inactive).

Q: And the GI50 [38]?
A: Its GI50 is > 100 µM (inactive).

Q: What about the GI50 [39] of the same compound?
A: The GI50 was > 100 µM (inactive).

Q: What about the GI50 [40] of the same compound?
A: The GI50 was > 100 µM (inactive).

Q: What about the GI50 [41] of the same compound?
A: Its GI50 is > 100 µM (inactive).

Q: And the GI50 [42]?
A: Its GI50 is > 100 µM (inactive).

Q: And the GI50 [43]?
A: Its GI50 is > 100 µM (inactive).

Q: And the GI50 [44]?
A: The GI50 was > 100 µM (inactive).

Q: And the GI50 [45]?
A: The GI50 was > 100 µM (inactive).

Q: And the GI50 [46]?
A: Its GI50 is > 100 µM (inactive).

Q: What about the GI50 [47] of the same compound?
A: Its GI50 is > 100 µM (inactive).

Q: What about the GI50 [48] of the same compound?
A: The GI50 was > 100 µM (inactive).

Q: And the GI50 [49]?
A: The GI50 was > 100 µM (inactive).

Q: And the GI50 [50]?
A: Its GI50 is > 100 µM (inactive).

Q: What about the GI50 [51] of the same compound?
A: The GI50 was > 100 µM (inactive).

Q: What about the GI50 [52] of the same compound?
A: The GI50 was > 100 µM (inactive).

Q: And the GI50 [53]?
A: Its GI50 is > 100 µM (inactive).

Q: What about the GI50 [54] of the same compound?
A: The GI50 was > 100 µM (inactive).

Q: What about the GI50 [55] of the same compound?
A: Its GI50 is 45.5 µM (inactive).

Q: And the GI50 [56]?
A: Its GI50 is > 100 µM (inactive).

Q: Which results are given for `CCOC(=O)CC(=O)C(=O)NN=C1NCCN1`?
A: GI50 [1]: > 100 µM (inactive); GI50 [2]: > 100 µM (inactive); GI50 [3]: > 100 µM; GI50 [4]: > 100 µM (inactive); GI50 [5]: > 100 µM (inactive); GI50 [6]: > 100 µM (inactive); GI50 [7]: > 100 µM (inactive); GI50 [8]: > 100 µM (inactive); GI50 [9]: > 100 µM (inactive); GI50 [10]: > 100 µM (inactive); GI50 [11]: > 100 µM (inactive); GI50 [12]: > 100 µM (inactive); GI50 [13]: > 100 µM (inactive); GI50 [57]: > 100 µM (inactive); GI50 [14]: > 100 µM (inactive); GI50 [15]: > 100 µM (inactive); GI50 [16]: > 100 µM (inactive); GI50 [17]: > 100 µM (inactive); GI50 [18]: > 100 µM (inactive); GI50 [19]: > 100 µM (inactive); GI50 [21]: > 100 µM (inactive); GI50 [22]: > 100 µM (inactive); GI50 [23]: > 100 µM (inactive); GI50 [24]: > 100 µM (inactive); GI50 [25]: > 100 µM (inactive); GI50 [26]: > 100 µM (inactive); GI50 [27]: > 100 µM (inactive); GI50 [28]: > 100 µM (inactive); GI50 [58]: > 100 µM (inactive); GI50 [29]: > 100 µM (inactive); GI50 [30]: > 100 µM (inactive); GI50 [31]: > 100 µM (inactive); GI50 [32]: > 100 µM (inactive); GI50 [33]: > 100 µM (inactive); GI50 [34]: > 100 µM (inactive); GI50 [35]: > 100 µM (inactive); GI50 [36]: > 100 µM (inactive); GI50 [37]: > 100 µM (inactive); GI50 [38]: > 100 µM (inactive); GI50 [39]: > 100 µM (inactive); GI50 [40]: > 100 µM (inactive); GI50 [41]: > 100 µM (inactive); GI50 [42]: > 100 µM (inactive); GI50 [43]: > 100 µM (inactive); GI50 [44]: > 100 µM (inactive); GI50 [45]: > 100 µM (inactive); GI50 [59]: > 100 µM (inactive); GI50 [46]: > 100 µM (inactive); GI50 [47]: > 100 µM (inactive); GI50 [48]: > 100 µM (inactive); GI50 [49]: > 100 µM (inactive); GI50 [50]: > 100 µM (inactive); GI50 [51]: > 100 µM (inactive); GI50 [52]: > 100 µM (inactive); GI50 [53]: > 100 µM (inactive); GI50 [54]: > 100 µM (inactive); GI50 [55]: > 100 µM (inactive)
